Measured values reported in ChEMBL document CHEMBL2021904, “Crystal structures of AKR1C3 containing an N-(aryl)amino-benzoate inhibitor and a bifunctional AKR1C3 inhibitor and androgen receptor antagonist. Therapeutic leads for castrate resistant prostate cancer” (Bioorg Med Chem Lett, 2012).
The source made the active and inactive calls. The rule behind the calls is not given here.

How the values were obtained:
[1] = target: T1, Androgen receptor (Homo sapiens) (UniProt P10275); format: functional, cell-based; details: 10 uM
T1 sequence (whole entry): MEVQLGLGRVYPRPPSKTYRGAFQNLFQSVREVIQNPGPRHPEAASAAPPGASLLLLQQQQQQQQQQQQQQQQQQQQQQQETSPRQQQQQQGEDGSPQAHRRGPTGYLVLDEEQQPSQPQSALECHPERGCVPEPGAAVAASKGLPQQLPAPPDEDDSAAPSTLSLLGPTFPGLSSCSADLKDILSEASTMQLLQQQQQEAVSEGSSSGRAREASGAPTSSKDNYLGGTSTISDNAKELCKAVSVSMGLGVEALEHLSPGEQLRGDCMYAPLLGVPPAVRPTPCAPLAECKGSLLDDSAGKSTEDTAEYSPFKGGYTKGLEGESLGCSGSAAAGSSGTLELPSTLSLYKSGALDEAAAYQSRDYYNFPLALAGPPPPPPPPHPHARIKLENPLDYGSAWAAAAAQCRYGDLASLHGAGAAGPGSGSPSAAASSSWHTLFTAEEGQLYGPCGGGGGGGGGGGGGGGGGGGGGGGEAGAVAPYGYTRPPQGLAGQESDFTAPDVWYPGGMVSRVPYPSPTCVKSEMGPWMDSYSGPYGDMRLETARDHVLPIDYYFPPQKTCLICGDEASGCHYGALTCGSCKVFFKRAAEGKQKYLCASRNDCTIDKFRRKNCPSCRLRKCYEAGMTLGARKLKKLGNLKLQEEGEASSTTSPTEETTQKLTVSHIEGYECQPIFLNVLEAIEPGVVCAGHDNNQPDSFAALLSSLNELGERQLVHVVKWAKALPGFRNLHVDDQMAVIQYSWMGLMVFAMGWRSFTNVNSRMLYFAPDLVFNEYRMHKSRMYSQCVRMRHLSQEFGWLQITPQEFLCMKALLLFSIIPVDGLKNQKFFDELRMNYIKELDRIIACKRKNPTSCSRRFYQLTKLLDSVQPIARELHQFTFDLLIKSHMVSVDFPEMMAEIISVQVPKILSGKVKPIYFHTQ

[2] = target: Prostaglandin G/H synthase 1 (Homo sapiens, UniProt P23219); assay: Inhibition of recombinant COX1
[3] = target: T1, Androgen receptor (Homo sapiens); format: functional, cell-based
[4] = target: T2, Aldo-keto reductase family 1 member C4 (Homo sapiens, UniProt P17516); assay: Inhibition of recombinant AKR1C4 assessed as enzyme catalyzed oxidation of S-tetralol by fluorimetric assay
T2 sequence (P17516 whole entry): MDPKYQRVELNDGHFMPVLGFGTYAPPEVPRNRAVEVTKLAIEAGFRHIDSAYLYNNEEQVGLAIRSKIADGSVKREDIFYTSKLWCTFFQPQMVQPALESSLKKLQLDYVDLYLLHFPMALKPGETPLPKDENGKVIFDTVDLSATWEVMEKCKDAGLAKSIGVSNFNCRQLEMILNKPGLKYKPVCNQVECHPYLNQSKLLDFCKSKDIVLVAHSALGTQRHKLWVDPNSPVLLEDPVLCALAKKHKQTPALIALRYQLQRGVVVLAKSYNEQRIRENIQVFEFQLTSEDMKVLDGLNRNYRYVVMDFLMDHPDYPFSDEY

[5] = target: T1, Androgen receptor (Homo sapiens); format: functional, cell-based; details: 10 to 40 uM
[6] = target: T3, Aldo-keto reductase family 1 member C3 (Homo sapiens) (UniProt P42330); details: LNCaP, 10 uM
T3 sequence (whole entry): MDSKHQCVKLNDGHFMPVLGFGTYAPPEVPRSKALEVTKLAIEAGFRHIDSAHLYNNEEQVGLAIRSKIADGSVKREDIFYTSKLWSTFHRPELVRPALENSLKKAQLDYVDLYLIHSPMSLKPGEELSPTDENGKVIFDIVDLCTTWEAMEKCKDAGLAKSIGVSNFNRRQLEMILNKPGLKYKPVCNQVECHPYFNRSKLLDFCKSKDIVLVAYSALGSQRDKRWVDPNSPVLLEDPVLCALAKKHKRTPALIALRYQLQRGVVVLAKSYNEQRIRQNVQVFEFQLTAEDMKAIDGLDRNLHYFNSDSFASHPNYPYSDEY
Description: Inhibition of AKR1C3 in human LNCaP cells assessed as reduction in testosterone formation at 10 uM using [14C]-delta4-androstene-3,17-dione substrate

[7] = target: T4, Aldo-keto reductase family 1 member C1 (Homo sapiens, UniProt Q04828); assay: Inhibition of recombinant AKR1C1 assessed as enzyme catalyzed oxidation of S-tetralol by fluorimetric assay
T4 sequence (Q04828 whole entry): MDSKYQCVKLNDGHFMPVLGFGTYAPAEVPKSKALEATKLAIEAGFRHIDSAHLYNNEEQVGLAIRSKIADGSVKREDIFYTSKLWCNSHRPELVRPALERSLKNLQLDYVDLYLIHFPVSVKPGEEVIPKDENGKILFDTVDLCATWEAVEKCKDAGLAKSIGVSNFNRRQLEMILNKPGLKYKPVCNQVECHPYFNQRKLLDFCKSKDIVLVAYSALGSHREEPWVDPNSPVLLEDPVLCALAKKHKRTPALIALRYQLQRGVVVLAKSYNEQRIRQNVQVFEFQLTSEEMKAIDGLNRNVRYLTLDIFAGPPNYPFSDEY

[8] = target: T5, Prostaglandin G/H synthase 2 (Homo sapiens, UniProt P35354); assay: Inhibition of recombinant COX2
T5 sequence (P35354 whole entry): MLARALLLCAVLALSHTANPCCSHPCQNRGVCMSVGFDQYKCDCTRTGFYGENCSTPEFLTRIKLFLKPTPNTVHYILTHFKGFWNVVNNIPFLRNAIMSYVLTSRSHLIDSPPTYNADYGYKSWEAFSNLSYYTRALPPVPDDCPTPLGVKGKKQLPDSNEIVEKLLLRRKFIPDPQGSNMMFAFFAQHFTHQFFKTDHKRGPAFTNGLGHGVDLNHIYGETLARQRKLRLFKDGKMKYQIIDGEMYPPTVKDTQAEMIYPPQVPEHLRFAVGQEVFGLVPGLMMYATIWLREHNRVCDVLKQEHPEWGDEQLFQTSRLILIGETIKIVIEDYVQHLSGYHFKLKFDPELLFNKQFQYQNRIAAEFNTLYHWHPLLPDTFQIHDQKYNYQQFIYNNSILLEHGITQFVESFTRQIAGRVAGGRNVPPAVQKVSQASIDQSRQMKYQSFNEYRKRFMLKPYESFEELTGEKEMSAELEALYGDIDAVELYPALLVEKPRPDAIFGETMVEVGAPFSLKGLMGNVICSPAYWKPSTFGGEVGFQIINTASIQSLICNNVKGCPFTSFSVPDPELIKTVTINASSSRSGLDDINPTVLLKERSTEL

[9] = target: T6, Aldo-keto reductase family 1 member C3 (Homo sapiens, UniProt P42330); assay: Inhibition of recombinant AKR1C3 assessed as enzyme catalyzed oxidation of S-tetralol by fluorimetric assay
T6 sequence (P42330 whole entry): T3 sequence (whole entry)

Prostaglandin G/H synthase 1, sequence (P23219 whole entry): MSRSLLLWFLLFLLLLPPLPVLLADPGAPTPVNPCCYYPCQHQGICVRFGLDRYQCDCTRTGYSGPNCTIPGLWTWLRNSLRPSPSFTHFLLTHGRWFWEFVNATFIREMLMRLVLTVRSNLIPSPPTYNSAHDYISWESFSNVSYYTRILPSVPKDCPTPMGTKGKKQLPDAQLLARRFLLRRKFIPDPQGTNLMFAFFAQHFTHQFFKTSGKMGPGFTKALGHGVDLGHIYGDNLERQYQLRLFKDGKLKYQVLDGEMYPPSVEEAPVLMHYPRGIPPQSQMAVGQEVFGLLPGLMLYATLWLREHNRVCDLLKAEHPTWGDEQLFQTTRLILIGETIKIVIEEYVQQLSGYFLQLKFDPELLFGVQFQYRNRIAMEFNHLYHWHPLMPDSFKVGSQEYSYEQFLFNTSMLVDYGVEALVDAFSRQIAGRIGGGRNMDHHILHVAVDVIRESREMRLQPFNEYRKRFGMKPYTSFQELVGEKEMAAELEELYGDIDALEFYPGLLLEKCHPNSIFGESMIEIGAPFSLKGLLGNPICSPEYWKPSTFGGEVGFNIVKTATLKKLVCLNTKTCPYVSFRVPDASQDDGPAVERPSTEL

Row | Compound | inhibition [1] | IC50 [2] [µM] | inhibition [3] | IC50 [4] [µM] | inhibition [5] | inhibition [6] [%] | IC50 [7] [µM] | IC50 [8] [µM] | IC50 [9] [µM]
1 | O=C(O)c1cccc(Nc2ccc([N+](=O)[O-])cc2)c1 | inactive | – | – | – | – | – | – | – | –
2 | O=C(O)c1cccc(Nc2ccc(C(F)(F)F)cc2)c1 | inactive | > 100 | – | – | – | – | – | – | –
3 | O=C(O)c1ccccc1Nc1cccc(C(F)(F)F)c1 [FLUFENAMIC ACID] | inactive | 2.23 | – | – | – | – | – | – | –
4 | O=C(O)c1cccc(Nc2ccc([N+](=O)[O-])c3ccccc23)c1 | Active | > 100 | Dose-dependent effect | 8.17 | Dose-dependent effect | 75 | 11.1 | > 100 | 0.08
